Laboratory results as given in patent US6358969B1, “3-desmethylrapamycin or derivatives thereof, processes for their preparation and their use as antifungal agents and immunosuppressants” (SmithKline Beecham p.l.c., priority 1991, dated 2002).
Values after ≈ are worked out from the molar mass of the structure shown. Like-named read-outs stand apart in the source and are kept apart here.

Columns and labels:
Assay type in all cases: cell-based
Aspergillus niger [1] = test: Spectrum of activity, agar diffusion zones of inhibition; settings: SAB agar, 24 hours, read-out: Zones of inhibition (diameter)
Protocol: (§1) Method—The spectrum of activity was determined by placing solutions of the compound, prepared in sodium phosphate buffer, pH 6.6, in wells in seeded Sabouraud's Dextrose Agar. Activity was assessed by measuring the zones of inhibition following incubation at 37° C. (yeasts and Aspergillus niger) or 30° C. (other filamentous fungi) for 24 hours.

Candida albicans 73/079 = test: as above; settings: SAB agar, 24 hours, read-out: Zones of inhibition (diameter)
Protocol: as §1

[2] = tested on: Crytococcus neoformans 451; test: as above; settings: SAB agar, 24 hours, read-out: Zones of inhibition (diameter)
Protocol: as §1

[3] = tested on: Hendersonula torulides TH65; test: as above; settings: SAB agar, 24 hours, read-out: Zones of inhibition (diameter)
Protocol: as §1

Paecilomyces varioti = test: as above; settings: SAB agar, 24 hours, read-out: Zones of inhibition (diameter)
Protocol: as §1

[4] = tested on: Pityrosporum canis 0024RE; test: as above; settings: SAB agar, 24 hours, read-out: Zones of inhibition (diameter)
Protocol: as §1

Rhizopus oryzae 21602 = test: as above; settings: Rhizopus arrhizus, SAB agar, 24 hours, read-out: Zones of inhibition (diameter)
Protocol: as §1

Saccharomyces cerevisiae = test: as above; settings: SAB agar, 24 hours, read-out: Zones of inhibition (diameter)
Protocol: as §1

[5] = tested on: Trichophyton mentagrophytes 569A; test: as above; settings: SAB agar, 24 hours, read-out: Zones of inhibition (diameter)
Protocol: as §1

Aspergillus niger [6] = test: Minimal Inhibitory Concentration, broth microtitre dilution; settings: 37° C., inoculum 10^4 spores/ml, read-out: Minimum Inhibitory Concentration (MIC)
Protocol: (§2) Method—The Minimal Inhibitory Concentration (MIC) was determined by diluting the compound in a broth medium in a microtitre tray. The organisms were diluted and added to the wells to provide a final inoculum of approximately 10^5 cells per ml or 10^4 fungal spores per ml. The trays were incubated at 37° C. and the turbidity of each well noted at intervals. The (MIC) was taken as the lowest concentration (in mg/ml) which prevented significant growth.

Candida albicans 731079 = test: as above; settings: 37° C., inoculum 10^5 cells/ml, read-out: Minimum Inhibitory Concentration (MIC)
Protocol: as §2

[7] = tested on: yeasts and filamentous fungi; test: Agar diffusion test, overall spectrum of activity; settings: summary of Table 1
Protocol: as §1

Candida albicans = test: Antifungal activity (stated characteristic of the compound)

COC1CC2CCC(C)C(O)(O2)C(=O)C(=O)N2CCCCC2C(=O)OC(C(C)CC2CCC(O)C(OC)C2)CC(=O)C(C)/C=C(\C)C(O)C(O)C(=O)C(C)CC(C)/C=C/C=C/C=C/1C (stereo not drawn)
zone of inhibition at 100 µg/mL (Aspergillus niger [1]; CONC 100 μg/ml): 46 mm
zone of inhibition at 500 µg/mL (Aspergillus niger [1]; CONC 500 μg/ml): 47 mm
zone of inhibition at 100 µg/mL (Candida albicans 73/079; CONC 100 μg/ml): 29 mm
zone of inhibition at 500 µg/mL (Candida albicans 73/079; CONC 500 μg/ml): 29 mm
zone of inhibition at 100 µg/mL ([2]; CONC 100 μg/ml): 29 mm
zone of inhibition at 500 µg/mL ([2]; CONC 500 μg/ml): 29 mm
zone of inhibition at 100 µg/mL ([3]; CONC 100 μg/ml): 33 mm
zone of inhibition at 500 µg/mL ([3]; CONC 500 μg/ml): 36 mm
zone of inhibition at 100 µg/mL (Paecilomyces varioti; CONC 100 μg/ml): 26 mm
zone of inhibition at 500 µg/mL (Paecilomyces varioti; CONC 500 μg/ml): 28 mm
zone of inhibition at 100 µg/mL ([4]; CONC 100 μg/ml): 0 mm
zone of inhibition at 500 µg/mL ([4]; CONC 500 μg/ml): 0 mm
zone of inhibition at 100 µg/mL (Rhizopus oryzae 21602; CONC 100 μg/ml): 46 mm
zone of inhibition at 500 µg/mL (Rhizopus oryzae 21602; CONC 500 μg/ml): 47 mm
zone of inhibition at 100 µg/mL (Saccharomyces cerevisiae; CONC 100 μg/ml): 34 mm
zone of inhibition at 500 µg/mL (Saccharomyces cerevisiae; CONC 500 μg/ml): 33 mm
zone of inhibition at 100 µg/mL ([5]; CONC 100 μg/ml): 42 mm
zone of inhibition at 500 µg/mL ([5]; CONC 500 μg/ml): 43 mm
MIC (Aspergillus niger [6]; 24 h, day 1 of incubation): 16 µg/mL (≈ 17.8 µM)
MIC (Aspergillus niger [6]; 48 h, day 2 of incubation): 32 µg/mL (≈ 35.5 µM)
MIC (Candida albicans 731079; Candida albicans, 731079, 24 h, day 1 of incubation): 32 µg/mL (≈ 35.5 µM)
MIC (Candida albicans 731079; Candida albicans, 731079, 48 h, day 2 of incubation): 32 µg/mL (≈ 35.5 µM)
Spectrum of activity in the agar diffusion test [7]: broad spectrum activity
Antifungal activity against Candida albicans (Candida albicans): shows antifungal activity
